US20230000813A1, “COMPOUND FOR THE TREATMENT OF BOVINE OR SWINE RESPIRATORY DISEASE” (Intervet Inc., priority 2016, published 2023)
≈ marks a conversion by molar mass, not a printed value. Where two headings read alike, the source gives them in different places.

What was measured:
Experiment in all cases: MIC, broth-microdilution (CLSI VET01-A4)
Assay type in all cases: cell-based
[1] = tested on: Mannheimia haemolytica MH 13065 (XB0446-6003.9, BRD field isolate)
Protocol: (§1) The Minimum inhibitory concentrations (MIC) of compounds according to the invention for a number of veterinary bacterial pathogens were determined by the broth-microdilution method according to CLSI document VET01-A4.
(§2) Microdilution trays containing a doubling dilution series of the test compound were used for the tests. The MIC results were interpreted according to the CLSI documents VET01-S3. The lowest concentration of compound at which no visible growth (i.e. no turbidity) detected by the unaided eye was recorded as the MIC.

[2] = tested on: Mannheimia haemolytica MH 13093 (XB0472-6014.1, BRD field isolate)
Protocol: as §1, §2

[3] = tested on: Pasteurella multocida PM 6391 (ATCC 43137, reference strain); settings: Pasteurella multocida PM 6391; for MIC: read-out: MIC PM 6391
Protocol: as §1, §2
(§3) The Minimum inhibitory concentrations (MIC) of compounds according to the invention were determined by the broth-microdilution method according to CLSI document VET01-A4.
(§4) Microdilution trays containing a doubling dilution series of the test compound were used for the tests.
(§5) The MIC results were interpreted according to the CLSI documents VET01-S3. The lowest concentration of compound at which no visible growth (i.e. no turbidity) detected by the unaided eye was recorded as the MIC.

[4] = tested on: Mannheimia haemolytica MH 6374 (ATCC 33396, reference strain); settings: Mannheimia haemolytica MH 6374; for MIC: read-out: MIC MH 6374
Protocol: as §1, §2, §3, §4, §5

[5] = tested on: Mannheimia haemolytica MH 12587 (1071, BRD field isolate, macrolide-resistance: erm+, E+); settings: Mannheimia haemolytica MH 12587, macrolide-resistant
Protocol: as §1, §2, §3, §4, §5

[6] = tested on: Mannheimia haemolytica MH 6357 (M7/2, reference strain, cattle infection strain); settings: Mannheimia haemolytica MH 6357; for MIC: read-out: MIC MH 6357
Protocol: as §1, §2, §3, §4, §5

[7] = tested on: Mannheimia haemolytica MH 10720 (154, BRD field isolate); settings: Mannheimia haemolytica MH 10720; for MIC: read-out: MIC MH 10720
Protocol: as §1, §2, §3, §4, §5

[8] = tested on: Pasteurella multocida PM 6267 (P 2225 (L386), reference strain, mouse infection strain); settings: Pasteurella multocida PM 6267; for MIC: read-out: MIC PM 6267
Protocol: as §1, §2, §3, §4, §5

[9] = tested on: Pasteurella multocida PM 12080 (IV102277-0093, BRD field isolate); settings: Pasteurella multocida PM 12080; for MIC: read-out: MIC PM 12080
Protocol: as §1, §2, §3, §4, §5

Structure (SMILES)	MIC [1] [µM]	MIC [2] [µM]	MIC [3] [µM]	MIC [4] [µM]	MIC MH 12587 [5] [µM]	MIC [6] [µM]	MIC [7] [µM]	MIC [8] [µM]	MIC PM 12080 [9]	MIC PM 6391 [3]	MIC MH 10720 [7]	MIC ([3]; ATCC43137) [µM]	MIC ([4]; ATCC33396) [µM]	MIC [9] [µM]	MIC PM 6267 [8]	MIC MH 6357 [6]	MIC MH 6374 [4]
Cc1ccc(CNCc2ccc(C#Cc3ccc(C(=O)NC(C(=O)NO)C(C)(C)N)cc3)s2)cc1 (stereo not shown) [Compound 537]	0.8 (≈ 0.393 µg/mL)	1.6 (≈ 0.785 µg/mL)	0.2 (≈ 0.0981 µg/mL)	0.8 (≈ 0.393 µg/mL)	1.6 (≈ 0.785 µg/mL)	0.8 (≈ 0.393 µg/mL)	0.2 (≈ 0.0981 µg/mL)	1.6 (≈ 0.785 µg/mL)	<=0.1 μM	–	–	–	–	–	–	–	–
CC(C)(N)C(NC(=O)c1ccc(C#Cc2ccc(CNCc3ccccc3)s2)cc1)C(=O)NO (stereo not shown) [Compound 525]	0.8 (≈ 0.381 µg/mL)	0.8 (≈ 0.381 µg/mL)	0.2 (≈ 0.0953 µg/mL)	0.4 (≈ 0.191 µg/mL)	1.6 (≈ 0.763 µg/mL)	0.8 (≈ 0.381 µg/mL)	0.2 (≈ 0.0953 µg/mL)	1.6 (≈ 0.763 µg/mL)	<=0.1 μM	–	–	–	–	–	–	–	–
CC(C)(N)C(NC(=O)c1ccc(C#Cc2ccc(CNCc3ccnc(Cl)c3)s2)cc1)C(=O)NO (stereo not shown) [Compound 533]	0.8 (≈ 0.41 µg/mL)	0.8 (≈ 0.41 µg/mL)	0.2 (≈ 0.102 µg/mL)	0.8 (≈ 0.41 µg/mL)	1.6 (≈ 0.819 µg/mL)	0.8 (≈ 0.41 µg/mL)	0.2 (≈ 0.102 µg/mL)	1.6 (≈ 0.819 µg/mL)	<=0.1 μM	–	–	–	–	–	–	–	–
CC(C)(N)C(NC(=O)c1ccc(C#Cc2ccc(CNCc3cccnc3)s2)cc1)C(=O)NO (stereo not shown) [Compound 532]	0.8 (≈ 0.382 µg/mL)	1.6 (≈ 0.764 µg/mL)	–	0.8 (≈ 0.382 µg/mL)	1.6 (≈ 0.764 µg/mL)	1.6 (≈ 0.764 µg/mL)	0.2 (≈ 0.0955 µg/mL)	1.6 (≈ 0.764 µg/mL)	<=0.1 μM	<=0.1 μM	–	–	–	–	–	–	–
C=CCNCc1ccc(C#Cc2ccc(C(=O)NC(C(=O)NO)C(C)(C)N)cc2)s1 (stereo not shown) [C. 522]	0.8 (≈ 0.341 µg/mL)	1.6 (≈ 0.682 µg/mL)	0.2 (≈ 0.0853 µg/mL)	0.4 (≈ 0.171 µg/mL)	1.6 (≈ 0.682 µg/mL)	1.6 (≈ 0.682 µg/mL)	0.2 (≈ 0.0853 µg/mL)	1.6 (≈ 0.682 µg/mL)	<=0.1 μM	–	–	–	–	–	–	–	–
CC(C)(N)C(NC(=O)c1ccc(C#Cc2ccc(CNCc3ccncc3)s2)cc1)C(=O)NO (stereo not shown) [Compound 527]	0.8 (≈ 0.382 µg/mL)	1.6 (≈ 0.764 µg/mL)	–	0.8 (≈ 0.382 µg/mL)	0.8 (≈ 0.382 µg/mL)	0.8 (≈ 0.382 µg/mL)	0.2 (≈ 0.0955 µg/mL)	1.6 (≈ 0.764 µg/mL)	<=0.1 μM	<=0.1 μM	–	–	–	–	–	–	–
COCCNCc1ccc(C#Cc2ccc(C(=O)NC(C(=O)NO)C(C)(C)N)cc2)s1 (stereo not shown) [Compound 523]	1.6 (≈ 0.711 µg/mL)	1.6 (≈ 0.711 µg/mL)	0.2 (≈ 0.0889 µg/mL)	0.8 (≈ 0.356 µg/mL)	1.6 (≈ 0.711 µg/mL)	1.6 (≈ 0.711 µg/mL)	0.4 (≈ 0.178 µg/mL)	–	<=0.1 μM	–	–	–	–	–	–	–	–
CC(C)(N)C(NC(=O)c1ccc(C#Cc2ccc(CNCc3ccco3)cc2)cc1)C(=O)NO (stereo not shown) [C. 518]	0.8 (≈ 0.368 µg/mL)	0.8 (≈ 0.368 µg/mL)	–	0.4 (≈ 0.184 µg/mL)	0.8 (≈ 0.368 µg/mL)	0.8 (≈ 0.368 µg/mL)	–	0.8 (≈ 0.368 µg/mL)	<=0.1 μM	–	<=0.1 μM	–	–	–	–	–	–
CC(C)(N)C(NC(=O)c1ccc(C#Cc2ccc(CNCc3ccco3)s2)cc1)C(=O)NO (stereo not shown) [Compound 535]	0.4 (≈ 0.187 µg/mL)	0.8 (≈ 0.373 µg/mL)	–	0.2 (≈ 0.0933 µg/mL)	0.8 (≈ 0.373 µg/mL)	0.8 (≈ 0.373 µg/mL)	–	0.8 (≈ 0.373 µg/mL)	<=0.1 μM	<=0.1 μM	<=0.1 μM	–	–	–	–	–	–
CC(C)(N)C(NC(=O)c1ccc(C#Cc2ccc([N+](=O)[O-])cc2)cc1)C(=O)NO (stereo not shown) [C. 552, N-[2-amino-1-(hydroxycarbamoyl)-2-methyl-propyl]-4-[2-(4-nitrophenyl)ethynyl]benzamide]	0.8 (≈ 0.317 µg/mL)	0.8 (≈ 0.317 µg/mL)	–	–	–	0.8 (≈ 0.317 µg/mL)	0.2 (≈ 0.0793 µg/mL)	0.8 (≈ 0.317 µg/mL)	–	–	–	≤ 0.1	0.2 (≈ 0.0793 µg/mL)	≤ 0.1	–	–	–
CC(C)(N)C(NC(=O)c1ccc(C#Cc2ccc(CNCc3cccs3)s2)cc1)C(=O)NO (stereo not shown) [Compound 536]	0.4 (≈ 0.193 µg/mL)	0.8 (≈ 0.386 µg/mL)	–	0.2 (≈ 0.0965 µg/mL)	0.8 (≈ 0.386 µg/mL)	0.8 (≈ 0.386 µg/mL)	–	0.8 (≈ 0.386 µg/mL)	<=0.1 μM	<=0.1 μM	<=0.1 μM	–	–	–	–	–	–
COc1ccc(CNCc2ccc(C#Cc3ccc(C(=O)NC(C(=O)NO)C(C)(C)N)cc3)cc2)cc1 (stereo not shown) [Compound 513]	1.6 (≈ 0.801 µg/mL)	1.6 (≈ 0.801 µg/mL)	0.2 (≈ 0.1 µg/mL)	0.8 (≈ 0.4 µg/mL)	1.6 (≈ 0.801 µg/mL)	1.6 (≈ 0.801 µg/mL)	0.2 (≈ 0.1 µg/mL)	1.6 (≈ 0.801 µg/mL)	–	–	–	–	–	0.2 (≈ 0.1 µg/mL)	–	–	–
COc1ccc(CNCc2ccc(C#Cc3ccc(C(=O)NC(C(=O)NO)C(C)(C)N)cc3)s2)cc1 (stereo not shown) [Compound 526]	0.8 (≈ 0.405 µg/mL)	1.6 (≈ 0.811 µg/mL)	0.2 (≈ 0.101 µg/mL)	0.4 (≈ 0.203 µg/mL)	1.6 (≈ 0.811 µg/mL)	0.8 (≈ 0.405 µg/mL)	0.2 (≈ 0.101 µg/mL)	1.6 (≈ 0.811 µg/mL)	–	–	–	–	–	0.2 (≈ 0.101 µg/mL)	–	–	–
CC(C)(C(NC(=O)c1ccc(C#Cc2ccc(CNC3CC3)cc2)cc1)C(=O)NO)[N+](=O)[O-] (stereo not shown) [Compound 554]	0.4 (≈ 0.18 µg/mL)	0.4 (≈ 0.18 µg/mL)	–	0.4 (≈ 0.18 µg/mL)	0.8 (≈ 0.36 µg/mL)	0.4 (≈ 0.18 µg/mL)	–	0.4 (≈ 0.18 µg/mL)	<=0.1 μM	–	<=0.1 μM	–	–	–	–	–	–
CC(C)(N)C(NC(=O)c1ccc(C#Cc2ccc(N)cc2)cc1)C(=O)NO (stereo not shown) [C. 553, N-(3-amino-1-(hydroxyamino)-3-methyl-1-oxobutan-2-yl)-4-((4-aminophenyl)ethynyl)benzamide]	1.6 (≈ 0.586 µg/mL)	0.8 (≈ 0.293 µg/mL)	–	–	–	0.8 (≈ 0.293 µg/mL)	0.2 (≈ 0.0733 µg/mL)	0.8 (≈ 0.293 µg/mL)	–	–	–	≤ 0.1	0.4 (≈ 0.147 µg/mL)	≤ 0.1	–	–	–
CC(O)C(NC(=O)c1ccc(C#CC#CC=CCNCc2ccc(Cl)cc2)cc1)C(=O)NO (stereo not shown) [Compound 453]	–	1.6 (≈ 0.745 µg/mL)	–	0.4 (≈ 0.186 µg/mL)	1.6 (≈ 0.745 µg/mL)	1.6 (≈ 0.745 µg/mL)	–	–	<=0.1 μM	<=0.1 μM	<=0.1 μM	–	–	–	<=0.1 μM	–	–
C#CCNCc1ccc(C#Cc2ccc(C(=O)N[C@H](C(=O)NO)[C@@H](C)O)cc2)s1 [Compound 479]	–	0.8 (≈ 0.329 µg/mL)	–	0.2 (≈ 0.0823 µg/mL)	0.8 (≈ 0.329 µg/mL)	–	–	–	<=0.1 μM	<=0.1 μM	<=0.1 μM	–	–	–	<=0.1 μM	<=0.1 μM	–
CC(C)(N)C(NC(=O)c1ccc(C#Cc2ccc(CNCc3ccco3)nc2)cc1)C(=O)NO (racemic) [Compound 548]	0.8 (≈ 0.369 µg/mL)	1.6 (≈ 0.738 µg/mL)	0.2 (≈ 0.0923 µg/mL)	0.8 (≈ 0.369 µg/mL)	1.6 (≈ 0.738 µg/mL)	1.6 (≈ 0.738 µg/mL)	0.2 (≈ 0.0923 µg/mL)	1.6 (≈ 0.738 µg/mL)	<=0.1 μM	–	–	–	–	–	–	–	–
C[C@@H](O)[C@H](NC(=O)c1ccc(C#Cc2ccc(CN3CC=CC3)s2)cc1)C(=O)NO [Compound 478]	–	0.2 (≈ 0.0851 µg/mL)	–	–	0.4 (≈ 0.17 µg/mL)	–	–	–	<=0.1 μM	<=0.1 μM	<=0.1 μM	–	–	–	<=0.1 μM	<=0.1 μM	<=0.1 μM
